Earlier results, collected in patent US4134792A, “Specific binding assay with an enzyme modulator as a labeling substance” (Miles Laboratories, Inc., priority 1976, dated 1979).

System: glycogen synthetase
Design: key: inhibitory or negative effectors are indicated by (-); stimulatory or positive effectors are indicated by (+)
Settings: yeast and lamb muscle; cited from earlier work

For `O=P(O)(O)OC[C@H]1OC(O)[C@H](O)[C@@H](O)[C@@H]1O` (stereo partly shown) [glucose-6-phosphate], the “allosteric effector: inhibitory (-) or stimulatory (+)” value is listed as “+”.
